System: IgE antibodies from patients
Test: Wheat epitope mapping (2): overlapping 10-amino-acid peptide fragments shifted by one amino acid;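 further: key of grades: preferably = shorter partial sequence still acting as epitope; more preferably = sequence improving IgE binding; key = particularly important sequence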
Assay type: binding, human
Summary of the method: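 Cellulose-bound 10-mer peptides offset by one residue were probed with patient serum IgE and detected by chemiluminescence. Secondary-antibody-only signals were subtracted per peptide. Residual binding was expressed as % of the parent overlapping peptide, scored as none (<30%), poor (30–<50%), somewhat poor (50–<70%) or retained (≥70%).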

[1] = serum of patient G5 (adult, general immediate type allergy to wheat)
[2] = serum of patient G6 (adult, general immediate type allergy to wheat)
[3] = serum of patient G9 (adult, general immediate type allergy to wheat)

## 1852 (YTVRTLQRT; REGION 1..9: note = epitope) [compound 1852]
Serum of patient P17 (WDEIA)
  epitope sequence binding to IgE antibody, rank (Key/Preferably/More preferably): More preferably

## 1853 (TVRTLQR; REGION 1..7: note = epitope) [compound 1853]
Serum of patient P17 (WDEIA)
  epitope sequence binding to IgE antibody, rank (Key/Preferably/More preferably): Preferably

## 1854 (RTLQR; REGION 1..5: note = epitope) [compound 1854]
Serum of patient P17 (WDEIA)
  epitope sequence binding to IgE antibody, rank (Key/Preferably/More preferably): Key

## 1856 (YTVRTLQRT; REGION 1..9: note = epitope) [compound 1856]
Serum of patient P18 (WDEIA)
  epitope sequence binding to IgE antibody, rank (Key/Preferably/More preferably): More preferably

## 1857 (TVRTLQR; REGION 1..7: note = epitope) [compound 1857]
Serum of patient P18 (WDEIA)
  epitope sequence binding to IgE antibody, rank (Key/Preferably/More preferably): Preferably

## 1858 (RTLQ; REGION 1..4: note = epitope) [compound 1858]
Serum of patient P18 (WDEIA)
  epitope sequence binding to IgE antibody, rank (Key/Preferably/More preferably): Key

## 1859 (YTVRTLQR; REGION 1..8: note = epitope) [compound 1859]
Serum of patient P19 (WDEIA)
  epitope sequence binding to IgE antibody, rank (Key/Preferably/More preferably): Preferably

## 1860 (TVRTLQ; REGION 1..6: note = epitope) [compound 1860]
Serum of patient P19 (WDEIA)
  epitope sequence binding to IgE antibody, rank (Key/Preferably/More preferably): Key

## 1861 (TVRTLQRT; REGION 1..8: note = epitope) [compound 1861]
Serum of patient P24 (WDEIA)
  epitope sequence binding to IgE antibody, rank (Key/Preferably/More preferably): Preferably

## 1862 (VRTLQ; REGION 1..5: note = epitope) [compound 1862]
Serum of patient P24 (WDEIA)
  epitope sequence binding to IgE antibody, rank (Key/Preferably/More preferably): Key

## 1863 (VIAEYTVRTL; REGION 1..10: note = epitope) [compound 1863]
Serum of patient P25 (WDEIA)
  epitope sequence binding to IgE antibody, rank (Key/Preferably/More preferably): Key

## 1864 (TVRTLQR; REGION 1..7: note = epitope) [compound 1864]
Serum of patient P25 (WDEIA)
  epitope sequence binding to IgE antibody, rank (Key/Preferably/More preferably): Key

## 1865 (TVRTLQR; REGION 1..7: note = epitope) [compound 1865]
Serum of patient P26 (WDEIA)
  epitope sequence binding to IgE antibody, rank (Key/Preferably/More preferably): Key

## 1866 (TVRTLQR; REGION 1..7: note = epitope) [compound 1866]
Serum of patient P27 (WDEIA)
  epitope sequence binding to IgE antibody, rank (Key/Preferably/More preferably): Key

## 1867 (TVRTLQR; REGION 1..7: note = epitope) [compound 1867]
Serum of patient P28 (WDEIA)
  epitope sequence binding to IgE antibody, rank (Key/Preferably/More preferably): Preferably

## 1868 (TVRTLQ; REGION 1..6: note = epitope) [compound 1868]
Serum of patient P28 (WDEIA)
  epitope sequence binding to IgE antibody, rank (Key/Preferably/More preferably): Key

## 1869 (YTVRTLQRT; REGION 1..9: note = epitope) [compound 1869]
Serum of patient P29 (WDEIA)
  epitope sequence binding to IgE antibody, rank (Key/Preferably/More preferably): More preferably

## 1870 (YTVRTLQR; REGION 1..8: note = epitope) [compound 1870]
Serum of patient P29 (WDEIA)
  epitope sequence binding to IgE antibody, rank (Key/Preferably/More preferably): Preferably

## 1871 (VRTLQR; REGION 1..6: note = epitope) [compound 1871]
Serum of patient P29 (WDEIA)
  epitope sequence binding to IgE antibody, rank (Key/Preferably/More preferably): Key

## 1872 (YTVRTLQRT; REGION 1..9: note = epitope) [compound 1872]
Serum of patient P30 (WDEIA)
  epitope sequence binding to IgE antibody, rank (Key/Preferably/More preferably): Preferably

## 1873 (TVRTLQR; REGION 1..7: note = epitope) [compound 1873]
Serum of patient P30 (WDEIA)
  epitope sequence binding to IgE antibody, rank (Key/Preferably/More preferably): Key

## 1875 (TVRTLQRTV; REGION 1..9: note = epitope) [compound 1875]
Serum of patient P31 (WDEIA)
  epitope sequence binding to IgE antibody, rank (Key/Preferably/More preferably): More preferably

## 1876 (VRTLQRT; REGION 1..7: note = epitope) [compound 1876]
Serum of patient P31 (WDEIA)
  epitope sequence binding to IgE antibody, rank (Key/Preferably/More preferably): Preferably

## 1877 (TLQR; REGION 1..4: note = epitope) [compound 1877]
Serum of patient P31 (WDEIA)
  epitope sequence binding to IgE antibody, rank (Key/Preferably/More preferably): Key

## 1878 (TVRTLQRT; REGION 1..8: note = epitope) [compound 1878]
Serum of patient P32 (WDEIA)
  epitope sequence binding to IgE antibody, rank (Key/Preferably/More preferably): Preferably

## 1879 (TVRTLQ; REGION 1..6: note = epitope) [compound 1879]
Serum of patient P32 (WDEIA)
  epitope sequence binding to IgE antibody, rank (Key/Preferably/More preferably): Key

## 1880 (TVRTLQRT; REGION 1..8: note = epitope) [compound 1880]
Serum of patient P33 (WDEIA)
  epitope sequence binding to IgE antibody, rank (Key/Preferably/More preferably): Preferably

## 1881 (TVRTLQR; REGION 1..7: note = epitope) [compound 1881]
Serum of patient P33 (WDEIA)
  epitope sequence binding to IgE antibody, rank (Key/Preferably/More preferably): Key

## 1882 (TVRTLQRT; REGION 1..8: note = epitope) [compound 1882]
Serum of patient P34 (WDEIA)
  epitope sequence binding to IgE antibody, rank (Key/Preferably/More preferably): Preferably

## 1883 (VRTLQ; REGION 1..5: note = epitope) [compound 1883]
Serum of patient P34 (WDEIA)
  epitope sequence binding to IgE antibody, rank (Key/Preferably/More preferably): Key

## 1884 (TVRTLQRT; REGION 1..8: note = epitope) [compound 1884]
Serum of patient P35 (WDEIA)
  epitope sequence binding to IgE antibody, rank (Key/Preferably/More preferably): Preferably

## 1885 (RTLQ; REGION 1..4: note = epitope) [compound 1885]
Serum of patient P35 (WDEIA)
  epitope sequence binding to IgE antibody, rank (Key/Preferably/More preferably): Key

## 1886 (TVRTLQRT; REGION 1..8: note = epitope) [compound 1886]
Serum of patient P36 (WDEIA)
  epitope sequence binding to IgE antibody, rank (Key/Preferably/More preferably): Key

## 1887 (YTVRTLQRTV; REGION 1..10: note = epitope) [compound 1887]
[1]
  epitope sequence binding to IgE antibody, rank (Key/Preferably/More preferably): Preferably

## 1888 (TVRTLQRT; REGION 1..8: note = epitope) [compound 1888]
[1]
  epitope sequence binding to IgE antibody, rank (Key/Preferably/More preferably): Key

## 1889 (TVRTLQR; REGION 1..7: note = epitope) [compound 1889]
[2]
  epitope sequence binding to IgE antibody, rank (Key/Preferably/More preferably): Preferably

## 1890 (RTLQ; REGION 1..4: note = epitope) [compound 1890]
[2]
  epitope sequence binding to IgE antibody, rank (Key/Preferably/More preferably): Key

## 1891 (YTVRTL; REGION 1..6: note = epitope) [compound 1891]
Serum of patient G7 (adult, general immediate type allergy to wheat)
  epitope sequence binding to IgE antibody, rank (Key/Preferably/More preferably): Key

## 1893 (YTVRTLQRT; REGION 1..9: note = epitope) [compound 1893]
[3]
  epitope sequence binding to IgE antibody, rank (Key/Preferably/More preferably): Preferably

## 1894 (VRTLQ; REGION 1..5: note = epitope) [compound 1894]
[3]
  epitope sequence binding to IgE antibody, rank (Key/Preferably/More preferably): Key

## 1896 (VPLVQQQ; REGION 1..7: note = epitope) [compound 1896]
Serum of patient P2 (WDEIA)
  epitope sequence binding to IgE antibody, rank (Key/Preferably/More preferably): Preferably

## 1897 (VPLVQQ; REGION 1..6: note = epitope) [compound 1897]
Serum of patient P2 (WDEIA)
  epitope sequence binding to IgE antibody, rank (Key/Preferably/More preferably): Key

## 1898 (QQFPGQQQ; REGION 1..8: note = epitope) [compound 1898]
Serum of patient P2 (WDEIA)
  epitope sequence binding to IgE antibody, rank (Key/Preferably/More preferably): Key

## 1900 (QVPLVQQ; REGION 1..7: note = epitope) [compound 1900]
Serum of patient P3 (WDEIA)
  epitope sequence binding to IgE antibody, rank (Key/Preferably/More preferably): Preferably

## 1901 (VPLVQ; REGION 1..5: note = epitope) [compound 1901]
Serum of patient P3 (WDEIA)
  epitope sequence binding to IgE antibody, rank (Key/Preferably/More preferably): Key

## 1902 (QQFPGQQ; REGION 1..7: note = epitope) [compound 1902]
Serum of patient P3 (WDEIA)
  epitope sequence binding to IgE antibody, rank (Key/Preferably/More preferably): Key

## 1904 (QVPLVQQ; REGION 1..7: note = epitope) [compound 1904]
Serum of patient P4 (WDEIA)
  epitope sequence binding to IgE antibody, rank (Key/Preferably/More preferably): Preferably

## 1905 (VPLVQ; REGION 1..5: note = epitope) [compound 1905]
Serum of patient P4 (WDEIA)
  epitope sequence binding to IgE antibody, rank (Key/Preferably/More preferably): Key

## 1906 (QFPGQQQ; REGION 1..7: note = epitope) [compound 1906]
Serum of patient P4 (WDEIA)
  epitope sequence binding to IgE antibody, rank (Key/Preferably/More preferably): Key

## 1908 (QVPLVQQ; REGION 1..7: note = epitope) [compound 1908]
Serum of patient P7 (WDEIA)
  epitope sequence binding to IgE antibody, rank (Key/Preferably/More preferably): Preferably

## 1909 (VPLVQ; REGION 1..5: note = epitope) [compound 1909]
Serum of patient P7 (WDEIA)
  epitope sequence binding to IgE antibody, rank (Key/Preferably/More preferably): Key

## 1910 (QFPGQQQ; REGION 1..7: note = epitope) [compound 1910]
Serum of patient P7 (WDEIA)
  epitope sequence binding to IgE antibody, rank (Key/Preferably/More preferably): Key

## 1912 (QVPLVQQQ; REGION 1..8: note = epitope) [compound 1912]
Serum of patient P8 (WDEIA)
  epitope sequence binding to IgE antibody, rank (Key/Preferably/More preferably): Preferably

## 1913 (QVPLVQQ; REGION 1..7: note = epitope) [compound 1913]
Serum of patient P8 (WDEIA)
  epitope sequence binding to IgE antibody, rank (Key/Preferably/More preferably): Key

## 1914 (QQFPGQQ; REGION 1..7: note = epitope) [compound 1914]
Serum of patient P8 (WDEIA)
  epitope sequence binding to IgE antibody, rank (Key/Preferably/More preferably): Key

## 1915 (QVPLVQQQQ; REGION 1..9: note = epitope) [compound 1915]
Serum of patient P9 (WDEIA)
  epitope sequence binding to IgE antibody, rank (Key/Preferably/More preferably): Key

## 1916 (QQQQFPGQQQ; REGION 1..10: note = epitope) [compound 1916]
Serum of patient P9 (WDEIA)
  epitope sequence binding to IgE antibody, rank (Key/Preferably/More preferably): Key

## 1918 (QVPLVQQQQ; REGION 1..9: note = epitope) [compound 1918]
Serum of patient P10 (WDEIA)
  epitope sequence binding to IgE antibody, rank (Key/Preferably/More preferably): Preferably

## 1919 (VPLVQQQ; REGION 1..7: note = epitope) [compound 1919]
Serum of patient P10 (WDEIA)
  epitope sequence binding to IgE antibody, rank (Key/Preferably/More preferably): Key

## 1920 (LVQQQQFPGQ; REGION 1..10: note = epitope) [compound 1920]
Serum of patient P10 (WDEIA)
  epitope sequence binding to IgE antibody, rank (Key/Preferably/More preferably): Key

## 1921 (QVPLVQQQ; REGION 1..8: note = epitope) [compound 1921]
Serum of patient P12 (WDEIA)
  epitope sequence binding to IgE antibody, rank (Key/Preferably/More preferably): Preferably

## 1922 (QVPLVQQ; REGION 1..7: note = epitope) [compound 1922]
Serum of patient P12 (WDEIA)
  epitope sequence binding to IgE antibody, rank (Key/Preferably/More preferably): Key

Reference: US20240393292A1, “ALLERGY ANTIGEN AND EPITOPE THEREOF” (HOYU CO., LTD., priority 2019, published 2024)
